Assay results reported in patent US12171766B2, “Methods of treating patients suffering from brain injury and methods of increasing the value of the extended Glasgow Outcome Scale of patients suffering from brain injury” (VERINOS OPERATIONS GMBH, priority 2021, dated 2024).

Test system: adult intensive care patients with acute moderate and severe TBI
Assay: NOSTRA phase III trial: Extended Glasgow Outcome Scale (eGOS) at 3 and 6 months, Ronopterin 17 mg/kg infused over 48 hours vs placebo, incl. post hoc subgroup analyses
Type: in vivo, human
Description: A phase III trial of Ronopterin infusion to adult TBI patients (18-60 years) with acute moderate and severe TBI was performed. Based on the results of the earlier phase II study, the NOSTRA (NO Synthase in TRAumatic Brain Injury) phase III trial was designed to detect clinically relevant differences in clinical outcome (Extended Glasgow Outcome Score at 6 months after injury) as primary endpoint.
NOSTRA III was a multicentre, prospective, two parallel groups, blinded, placebo-controlled, randomised phase III trial of Ronopterin infusion for 48 hours in adult intensive care patients with acute moderate and severe TBI. […] The detailed study protocol is described by Tegtmeier et al. Efficacy of Ronopterin (VAS203) in Patients with Moderate and Severe Traumatic Brain Injury (NOSTRA phase III trial): study protocol of a confirmatory, placebo-controlled, randomised, double blind, multi-centre study. Trials. 2020. A total of 224 evaluable patients with moderate and severe TBI were enrolled in 32 centres in Austria, France, Germany, Spain, and United Kingdom. The trial started on 24 Aug. 2016 with last-patient last-visit on 17 Jun. 2020.
Patients between 18 and 60 years of age with Glasgow Coma Score≥3 requiring intracranial pressure (ICP) monitoring were enrolled. Other inclusion criteria were TBI within the last 18 hours but at least 6 hours after the injury, which were expected to survive more than 24 hours after admission.
Ronopterin and placebo (0.9% saline) were infused continuously via central venous catheter at a constant rate. A total dose of 17 mg/kg body weight of Ronopterin was infused for 48 hours (daily dose 8.5 mg/kg body weight).
The primary outcome was the difference between eGOS in Ronopterin and placebo treated patients at 6 months after trauma. The eGOS was determined by a face to face meeting by trained assessors.
The null-hypothesis of no shift across the 8 ordered categories of eGOS for the two treatment groups was tested after six months based on a proportional odds model stratified by age (18-39 years and 40-60 years). The treatment effect was estimated using ordinal Logistic regression model as the (proportional) odds ratio of Ronopterin versus Placebo. Treatment and age (18-39 years and 40-60 years) were included in the model. The proportional odds assumption was tested using a Chi-Square Score Test.
As secondary efficacy endpoint the eGOS at 3 months was analysed using the same statistics.
The main objective of the post hoc analyses was to estimate the effect size of VAS203 compared with placebo for the primary endpoint eGOS-I in the subgroups time to infusion ≤12 hours and >12 hours. Supportive analyses were conducted by age group (<40 years, ≥40 years) because age group was used as a stratification factor in the study. Comparability between treatment groups regarding demographics as well as severity and location of disease was investigated using similar methods as in the main CSR.
The proportions of patients per eGOS-I level at 3 months and at 6 months were calculated. For the change in eGOS-I over time, the proportion of patients with changes from 3 to 6 months were calculated by eGOS-I level, and in addition categorised as decreased (i.e. any decrease in eGOS-I level from 3 to 6 months), unchanged (i.e. no change in eGOS-I level from 3 to 6 months), and increased (i.e. any increase in eGOS-I level from 3 to 6 months).
Ordinal logistic regression was used for the analysis of eGOS-I at 3 months and at 6 months, including treatment group and age group (<40 years, ≥40 years) as factors in the model. Estimated odds ratios for the comparison of the VAS203 and placebo groups of >1 mean that eGOS-I was higher in the VAS203 group than in the placebo group across the 8 levels, whereas odds ratios of <1 mean that eGOS-I was lower in the VAS203 group than in the placebo group. Odds ratios together with their 95% CIs were used to estimate and assess the size of the treatment effect of VAS203 compared to placebo. […]

[1] = female patients, ≤12 hours (FIGS. 14A-D)

## CC(O)C(O)C1CNc2nc(N)nc(N)c2N1 [Ronopterin, 4-Amino-(6R,S)-5,6,7,8-tetrahydro-L-biopterin]
Age 40-60 years, all times to infusion (FIG. 8C)
  number of patients with increase in eGOS by at least 2 levels from 3 to 6 months: 10
Age 40-60 years, all times to infusion (FIG. 8D)
  more patients with higher increase in eGOS over time vs placebo: significance: not (statistically) significant
Age 40-60 years, ≤12 hours (FIG. 9A)
  increase in eGOS levels from 3 to 6 months: up to 4 levels
Age 40-60 years, ≤12 hours (FIG. 9C)
  number of patients with increase in eGOS by at least 2 levels from 3 to 6 months: 5
Age group 18-39 (<40), early infusion (≤12 hours), vs placebo
  Odds ratio for increases in eGOS levels from 3 to 6 months: 4.398
Age ≥40 years, ≤12 hours (FIGS. 9A-D)
  patients with an increase in their eGOS levels (eGOS responders) vs placebo: trend to more patients with an increase in their eGOS levels
All ages, >12 hours (FIG. 5E)
  increase in eGOS levels from 3 to 6 months: up to 4 levels
All ages, early infusion ≤12 hours (FIG. 5C)
  number of patients with increase in eGOS by at least 2 levels from 3 to 6 months: 9
All ages, late infusion >12 hours (FIG. 5G)
  number of patients with increase in eGOS by at least 2 levels from 3 to 6 months: 15
All ages, ≤12 hours (FIG. 5A)
  increase in eGOS levels from 3 to 6 months: up to 4 levels
All ages, ≤12 hours (FIGS. 5A-D)
  increase in proportion of patients with an eGOS increase by at least 1 level compared to Placebo: significance: significant
All patients, all times to infusion
  less patients with a decrease in eGOS over time vs placebo: significance: not (statistically) significant
All patients, all times to infusion (FIG. 4A)
  increase in eGOS levels from 3 to 6 months: up to 4 levels
All patients, all times to infusion (FIG. 4C)
  number of patients with increase in eGOS by at least 2 levels from 3 to 6 months: 24
All patients, all times to infusion (FIG. 4D)
  more patients with higher increase in eGOS over time vs placebo: significance: not (statistically) significant
All patients, ordinal logistic regression
  overall eGOS-I rating at 6 months, Ronopterin vs placebo (primary efficacy endpoint): No difference
Female patients, >12 hours (FIG. 14E)
  increase in eGOS levels from 3 to 6 months: up to 2 levels
Female patients, >12 hours (FIG. 14G)
  number of patients with increase in eGOS by at least 2 levels from 3 to 6 months: 2
Female patients, all times to infusion (FIG. 13A)
  increase in eGOS levels from 3 to 6 months: up to 2 levels
Female patients, all times to infusion (FIG. 13C)
  number of patients with increase in eGOS by at least 2 levels from 3 to 6 months: 2
Female patients, all times to infusion (FIG. 13D)
  less female patients with higher increase in eGOS over time vs placebo: significance: not (statistically) significant
Female patients, early infusion ≤12 hours (FIG. 18)
  increase in proportion of patients with Good Recovery (eGOS 7 and 8) from 3 to 6 months, compared to Placebo: exceeding the proportion in Placebo-treated patients
Female patients, late infusion >12 hours (FIG. 18)
  increase in proportion of patients with Good Recovery (eGOS 7 and 8) from 3 to 6 months, compared to Placebo: exceeding the proportion in Placebo-treated patients
Female patients, ≤12 hours (FIG. 14A)
  increase in eGOS levels from 3 to 6 months: up to 2 levels
Female patients, ≤12 hours (FIG. 14C)
  number of patients with increase in eGOS by at least 2 levels from 3 to 6 months: 0
[1]
  Good Recovery at 3 months vs placebo: higher Good Recovery at 3 months
  eGOS responders vs placebo: less female eGOS responders
Male patients, >12 hours (FIG. 12E)
  increase in eGOS levels from 3 to 6 months: up to 4 levels
Male patients, >12 hours (FIG. 12G)
  number of patients with increase in eGOS by at least 2 levels from 3 to 6 months: 13
Male patients, all times to infusion (FIG. 11A)
  increase in eGOS levels from 3 to 6 months: up to 4 levels
Male patients, all times to infusion (FIG. 11C)
  number of patients with increase in eGOS by at least 2 levels from 3 to 6 months: 22
Male patients, all times to infusion (FIG. 11D)
  more patients with higher increase in eGOS over time vs placebo: significance: not (statistically) significant
Male patients, all times to infusion, p=0.04
  patients with a decrease in eGOS over time vs placebo: significantly less
Male patients, early infusion ≤12 hours (FIG. 17)
  increase in proportion of patients with Good Recovery (eGOS 7 and 8) from 3 to 6 months, compared to Placebo: exceeding the proportion in Placebo-treated patients
Male patients, late infusion >12 hours (FIG. 17)
  increase in proportion of patients with Good Recovery (eGOS 7 and 8) from 3 to 6 months, compared to Placebo: less pronounced compared to Placebo-treated patients
Male patients, ≤12 hours (FIG. 12A)
  increase in eGOS levels from 3 to 6 months: up to 4 levels
Male patients, ≤12 hours (FIG. 12C)
  number of patients with increase in eGOS by at least 2 levels from 3 to 6 months: 9
Male patients, ≤12 hours (FIGS. 12A-D)
  increase in proportion of patients with an eGOS increase by at least 1 level compared to Placebo: significance: significant
Time to infusion >12 hours
  median eGOS at 6 months: 5
  proportion of patients with Good Recovery (eGOS 7 and 8) at 6 months: 25%
Time to infusion ≤12 hours
  increase of proportion of patients with a Good Recovery at 6 months compared to the Placebo group: 61%
  median eGOS at 6 months: 6
  proportion of patients with Good Recovery (eGOS 7 and 8) at 6 months: 37%
Time to infusion ≤12 hours, vs placebo
  NNT for Good Recovery (eGOS 7 and 8) at 6 months: 8
